Measurements reported in PubChem BioAssay (NCI).
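At the GI50, growth is halved. TGI is the concentration that stops growth completely.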

Columns and labels:
Test in all cases: inhibition of tumour cell growth, NCI panel, 384-well format
786-0 renal = test system: 786-0 renal
A498 renal = test system: A498 renal
A549 NSCLC = test system: A549 NSCLC
BT-549 breast = test system: BT-549 breast
CAKI-1 renal = test system: CAKI-1 renal
CCRF-CEM leukemia = test system: CCRF-CEM leukemia
COLO 205 colon = test system: COLO 205 colon
EKVX NSCLC = test system: EKVX NSCLC
HCC-2998 colon = test system: HCC-2998 colon
HCT-116 colon = test system: HCT-116 colon
HCT-15 colon = test system: HCT-15 colon
HL-60(TB) leukemia = test system: HL-60(TB) leukemia
HOP-62 NSCLC = test system: HOP-62 NSCLC
HOP-92 NSCLC = test system: HOP-92 NSCLC
HS 578T breast = test system: HS 578T breast
HT29 colon = test system: HT29 colon
IGROV1 ovarian = test system: IGROV1 ovarian
K-562 leukemia = test system: K-562 leukemia
KM12 colon = test system: KM12 colon
LOX IMVI melanoma = test system: LOX IMVI melanoma
M14 melanoma = test system: M14 melanoma
MALME-3M melanoma = test system: MALME-3M melanoma
MCF7 breast = test system: MCF7 breast
MDA-MB-231 breast = test system: MDA-MB-231 breast
MDA-MB-468 breast = test system: MDA-MB-468 breast
MOLT-4 leukemia = test system: MOLT-4 leukemia
NCI-H23 lung = test system: NCI-H23 lung
NCI-H322M lung = test system: NCI-H322M lung
NCI-H460 NSCLC = test system: NCI-H460 NSCLC
NCI-H522 lung = test system: NCI-H522 lung
NCI/ADR-RES ovarian = test system: NCI/ADR-RES ovarian
OVCAR-3 ovarian = test system: OVCAR-3 ovarian
OVCAR-5 ovarian = test system: OVCAR-5 ovarian
OVCAR-8 ovarian = test system: OVCAR-8 ovarian
PC-3 prostate = test system: PC-3 prostate
RPMI-8226 leukemia = test system: RPMI-8226 leukemia
RXF 393 renal = test system: RXF 393 renal
SF-268 CNS = test system: SF-268 CNS
SF-295 CNS = test system: SF-295 CNS
SF-539 CNS = test system: SF-539 CNS
SK-MEL-28 melanoma = test system: SK-MEL-28 melanoma
SK-MEL-5 melanoma = test system: SK-MEL-5 melanoma
SK-OV-3 ovarian = test system: SK-OV-3 ovarian
SN12C renal = test system: SN12C renal
SNB-19 CNS = test system: SNB-19 CNS
SNB-75 CNS = test system: SNB-75 CNS
SW-620 colon = test system: SW-620 colon
T-47D breast = test system: T-47D breast
TK-10 renal = test system: TK-10 renal
U251 glioblastoma = test system: U251 glioblastoma
UACC-257 melanoma = test system: UACC-257 melanoma
UACC-62 melanoma = test system: UACC-62 melanoma
UO-31 renal = test system: UO-31 renal
ACHN renal = test system: ACHN renal
DU-145 prostate = test system: DU-145 prostate
NCI-H226 lung = test system: NCI-H226 lung
OVCAR-4 ovarian = test system: OVCAR-4 ovarian
SR leukemia = test system: SR leukemia

SMILES: Cc1cc(Nc2ncc3c(n2)N(C)C(=O)N(c2cc(NC(=O)c4cccc(C(F)(F)F)c4)ccc2C)C3)n(C)n1
- GI50 ([…]-0 renal): 40.1 nM
- TGI (786-0 renal): 302 nM
- GI50 (A498 renal): 14.2 nM
- TGI (A498 renal): 105 nM
- GI50 (A549 NSCLC): 17.9 nM
- TGI (A549 NSCLC): 162 nM
- GI50 (BT-549 breast): 19.9 nM
- TGI (BT-549 breast): 73.3 nM
- GI50 (CAKI-1 renal): < 10 nM
- TGI (CAKI-1 renal): 20.5 nM
- GI50 (CCRF-CEM leukemia): 1340 nM
- TGI (CCRF-CEM leukemia): 3420 nM
- GI50 (COLO 205 colon): < 10 nM
- TGI (COLO 205 colon): 128 nM
- GI50 (EKVX NSCLC): 40.8 nM
- TGI (EKVX NSCLC): 305 nM
- GI50 (HCC-2998 colon): 45.8 nM
- TGI (HCC-2998 colon): 1090 nM
- GI50 (HCT-116 colon): 27.2 nM
- TGI (HCT-116 colon): 147 nM
- GI50 (HCT-15 colon): 224 nM
- TGI (HCT-15 colon): 1390 nM
- GI50 (HL-60(TB) leukemia): 21.6 nM
- TGI (HL-60(TB) leukemia): 107 nM
- GI50 (HOP-62 NSCLC): 87.6 nM
- TGI (HOP-62 NSCLC): 534 nM
- GI50 (HOP-92 NSCLC): 17.3 nM
- TGI (HOP-92 NSCLC): 74.6 nM
- GI50 (HS 578T breast): 15.6 nM
- TGI (HS 578T breast): 54.3 nM
- GI50 (HT29 colon): 16.4 nM
- TGI (HT29 colon): 312 nM
- GI50 (IGROV1 ovarian): < 10 nM
- TGI (IGROV1 ovarian): 34.6 nM
- GI50 (K-562 leukemia): < 10 nM
- GI50 (KM12 colon): 513 nM
- TGI (KM12 colon): > 100000 nM
- GI50 (LOX IMVI melanoma): < 10 nM
- TGI (LOX IMVI melanoma): 11 nM
- GI50 (M14 melanoma): < 10 nM
- TGI (M14 melanoma): 28.8 nM
- GI50 (MALME-3M melanoma): < 10 nM
- GI50 (MCF7 breast): 880 nM
- TGI (MCF7 breast): > 100000 nM
- GI50 (MDA-MB-231 breast): 11.3 nM
- TGI (MDA-MB-231 breast): 87.1 nM
- GI50 (MDA-MB-468 breast): 25.1 nM
- TGI (MDA-MB-468 breast): 98.2 nM
- GI50 (MOLT-4 leukemia): 22.1 nM
- TGI (MOLT-4 leukemia): 1360 nM
- GI50 (NCI-H23 lung): 24.4 nM
- TGI (NCI-H23 lung): 189 nM
- GI50 (NCI-H322M lung): 22 nM
- TGI (NCI-H322M lung): 137 nM
- GI50 (NCI-H460 NSCLC): 52 nM
- TGI (NCI-H460 NSCLC): > 100000 nM
- GI50 (NCI-H522 lung): < 10 nM
- TGI (NCI-H522 lung): 31.3 nM
- GI50 (NCI/ADR-RES ovarian): 1650 nM
- TGI (NCI/ADR-RES ovarian): 3240 nM
- GI50 (OVCAR-3 ovarian): 24.3 nM
- TGI (OVCAR-3 ovarian): 198 nM
- GI50 (OVCAR-5 ovarian): 34.2 nM
- TGI (OVCAR-5 ovarian): 254 nM
- GI50 (OVCAR-8 ovarian): 34.1 nM
- TGI (OVCAR-8 ovarian): 337 nM
- GI50 (PC-3 prostate): 4250 nM
- TGI (PC-3 prostate): > 100000 nM
- GI50 (RPMI-8226 leukemia): 286 nM
- TGI (RPMI-8226 leukemia): 1790 nM
- GI50 (RXF 393 renal): < 10 nM
- TGI (RXF 393 renal): 87.1 nM
- GI50 (SF-268 CNS): < 10 nM
- TGI (SF-268 CNS): 13.6 nM
- GI50 (SF-295 CNS): 1420 nM
- TGI (SF-295 CNS): > 100000 nM
- GI50 (SF-539 CNS): 72.6 nM
- TGI (SF-539 CNS): 577 nM
- GI50 (SK-MEL-28 melanoma): 16.2 nM
- TGI (SK-MEL-28 melanoma): 83 nM
- GI50 (SK-MEL-5 melanoma): 32.3 nM
- TGI (SK-MEL-5 melanoma): 8420 nM
- GI50 (SK-OV-3 ovarian): < 10 nM
- TGI (SK-OV-3 ovarian): 42.9 nM
- GI50 (SN12C renal): 11.1 nM
- TGI (SN12C renal): 59.3 nM
- GI50 (SNB-19 CNS): 199 nM
- TGI (SNB-19 CNS): > 100000 nM
- GI50 (SNB-75 CNS): 18.9 nM
- TGI (SNB-75 CNS): 77.9 nM
- GI50 (SW-620 colon): 69.9 nM
- TGI (SW-620 colon): 1280 nM
- GI50 (T-47D breast): 25.7 nM
- TGI (T-47D breast): 75.1 nM
- GI50 (TK-10 renal): 28.8 nM
- TGI (TK-10 renal): 120 nM
- GI50 (U251 glioblastoma): 25.8 nM
- TGI (U251 glioblastoma): 1200 nM
- GI50 (UACC-257 melanoma): 33.8 nM
- TGI (UACC-257 melanoma): 311 nM
- GI50 (UACC-62 melanoma): < 10 nM
- TGI (UACC-62 melanoma): 15 nM
- GI50 (UO-31 renal): 134 nM
- TGI (UO-31 renal): 312 nM

SMILES: Cc1nc(-c2nc(-c3ccc(OC(F)(F)F)cc3)no2)nn1Cc1cccc(N2CCC(S(C)(=O)=O)CC2)c1
- GI50 (A549 NSCLC): 2610 nM
- TGI (A549 NSCLC): 33900 nM
- GI50 (ACHN renal): 10400 nM
- TGI (ACHN renal): 34600 nM
- GI50 (BT-549 breast): 2100 nM
- TGI (BT-549 breast): 26200 nM
- GI50 (CAKI-1 renal): 4660 nM
- TGI (CAKI-1 renal): 71100 nM
- GI50 (CCRF-CEM leukemia): < 10 nM
- TGI (CCRF-CEM leukemia): 3590 nM
- GI50 (DU-145 prostate): 29400 nM
- TGI (DU-145 prostate): > 100000 nM
- GI50 (HCT-116 colon): < 10 nM
- TGI (HCT-116 colon): 2820 nM
- GI50 (HCT-15 colon): 6190 nM
- TGI (HCT-15 colon): > 100000 nM
- GI50 (HL-60(TB) leukemia): 156 nM
- TGI (HL-60(TB) leukemia): 290 nM
- GI50 (HOP-62 NSCLC): < 10 nM
- TGI (HOP-62 NSCLC): 20600 nM
- GI50 (HOP-92 NSCLC): 567 nM
- TGI (HOP-92 NSCLC): 46200 nM
- GI50 (K-562 leukemia): < 10 nM
- TGI (K-562 leukemia): > 100000 nM
- GI50 (LOX IMVI melanoma): 47.9 nM
- TGI (LOX IMVI melanoma): > 100000 nM
- GI50 (MALME-3M melanoma): 23600 nM
- TGI (MALME-3M melanoma): 56600 nM
- GI50 (MCF7 breast): 221 nM
- TGI (MCF7 breast): 50800 nM
- GI50 (MDA-MB-468 breast): < 10 nM
- TGI (MDA-MB-468 breast): < 10 nM
- GI50 (MOLT-4 leukemia): 27.1 nM
- TGI (MOLT-4 leukemia): 208 nM
- GI50 (NCI-H226 lung): 664 nM
- TGI (NCI-H226 lung): 39500 nM
- GI50 (NCI-H23 lung): < 10 nM
- TGI (NCI-H23 lung): < 10 nM
- GI50 (NCI-H322M lung): 14.9 nM
- TGI (NCI-H322M lung): 16400 nM
- GI50 (NCI-H460 NSCLC): < 10 nM
- TGI (NCI-H460 NSCLC): 18.3 nM
- GI50 (NCI-H522 lung): 1080 nM
- TGI (NCI-H522 lung): 17600 nM
- GI50 (NCI/ADR-RES ovarian): < 10 nM
- TGI (NCI/ADR-RES ovarian): 51.5 nM
- GI50 (OVCAR-3 ovarian): 5090 nM
- TGI (OVCAR-3 ovarian): > 100000 nM
- GI50 (OVCAR-4 ovarian): 292 nM
- TGI (OVCAR-4 ovarian): 24800 nM
- GI50 (OVCAR-5 ovarian): 86000 nM
- TGI (OVCAR-5 ovarian): > 100000 nM
- GI50 (OVCAR-8 ovarian): < 10 nM
- TGI (OVCAR-8 ovarian): 19600 nM
- GI50 (PC-3 prostate): 17300 nM
- TGI (PC-3 prostate): > 100000 nM
- GI50 (RPMI-8226 leukemia): < 10 nM
- TGI (RPMI-8226 leukemia): 1030 nM
- GI50 (RXF 393 renal): < 10 nM
- TGI (RXF 393 renal): < 10 nM
- GI50 (SF-295 CNS): 93.2 nM
- TGI (SF-295 CNS): 37000 nM
- GI50 (SK-MEL-28 melanoma): 28000 nM
- TGI (SK-MEL-28 melanoma): 80900 nM
- GI50 (SK-MEL-5 melanoma): < 10 nM
- TGI (SK-MEL-5 melanoma): 11800 nM
- GI50 (SN12C renal): 20400 nM
- TGI (SN12C renal): > 100000 nM
- GI50 (SNB-19 CNS): 47200 nM
- TGI (SNB-19 CNS): > 100000 nM
- GI50 (SR leukemia): < 10 nM
- TGI (SR leukemia): < 10 nM
- GI50 (SW-620 colon): 11500 nM
- TGI (SW-620 colon): > 100000 nM
- GI50 (T-47D breast): < 10 nM
- TGI (T-47D breast): 23400 nM
- GI50 (TK-10 renal): 8150 nM
- TGI (TK-10 renal): 78800 nM
- GI50 (UACC-257 melanoma): 56.5 nM
- TGI (UACC-257 melanoma): 827 nM
- GI50 (UO-31 renal): 7920 nM
- TGI (UO-31 renal): 36600 nM
